Measurements taken from patent US9884063B2, “Amido-substituted azole compounds” (Bayer Pharma Aktiengesellschaft, priority 2014, dated 2018).

Assays:
TNKS2 = molecular target: T1, TNKS2 (Homo sapiens, UniProt Q9H2K2); test: Modified TNKS2 Assay 2 (auto-parsylation, [3H]-NAD+ SPA); format: biochemical; settings: 6 nM TNKS2, 96 well
T1 sequence (Q9H2K2 1-1166): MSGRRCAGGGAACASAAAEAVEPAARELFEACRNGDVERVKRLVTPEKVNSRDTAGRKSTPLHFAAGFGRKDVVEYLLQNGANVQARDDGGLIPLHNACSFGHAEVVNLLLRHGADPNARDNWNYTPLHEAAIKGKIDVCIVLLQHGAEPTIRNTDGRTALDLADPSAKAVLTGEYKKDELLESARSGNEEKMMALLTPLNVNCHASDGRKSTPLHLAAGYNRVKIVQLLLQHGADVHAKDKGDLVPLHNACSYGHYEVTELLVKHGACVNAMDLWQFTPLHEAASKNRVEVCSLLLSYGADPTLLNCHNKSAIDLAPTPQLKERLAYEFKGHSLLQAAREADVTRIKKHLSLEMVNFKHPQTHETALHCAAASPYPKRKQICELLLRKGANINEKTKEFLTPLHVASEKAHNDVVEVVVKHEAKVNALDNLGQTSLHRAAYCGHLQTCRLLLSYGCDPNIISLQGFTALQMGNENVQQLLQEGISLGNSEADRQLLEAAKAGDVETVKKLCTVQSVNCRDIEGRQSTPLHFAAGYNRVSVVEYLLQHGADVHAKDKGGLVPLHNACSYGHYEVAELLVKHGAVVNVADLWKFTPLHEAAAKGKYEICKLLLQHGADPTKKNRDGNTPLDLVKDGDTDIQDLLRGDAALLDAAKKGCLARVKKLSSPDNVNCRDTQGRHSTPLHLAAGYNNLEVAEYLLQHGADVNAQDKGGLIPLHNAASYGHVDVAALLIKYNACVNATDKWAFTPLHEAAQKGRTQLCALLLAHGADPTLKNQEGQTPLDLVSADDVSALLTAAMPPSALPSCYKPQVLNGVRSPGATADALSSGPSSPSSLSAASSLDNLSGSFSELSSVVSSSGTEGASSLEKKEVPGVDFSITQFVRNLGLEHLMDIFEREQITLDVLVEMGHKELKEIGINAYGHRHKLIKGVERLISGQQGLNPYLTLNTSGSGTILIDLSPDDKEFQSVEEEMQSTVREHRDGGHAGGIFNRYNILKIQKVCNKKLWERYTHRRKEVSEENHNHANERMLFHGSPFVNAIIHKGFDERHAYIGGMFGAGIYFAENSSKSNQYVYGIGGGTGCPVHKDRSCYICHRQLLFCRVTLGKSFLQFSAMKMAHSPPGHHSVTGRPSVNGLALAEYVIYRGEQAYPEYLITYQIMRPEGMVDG
Method: The potency of selected compounds according to the invention was assessed applying an modified in vitro inhibition assay. Here, the TNKS2 catalyzed NAD^+-dependent ribosylation of the enzyme itself (auto-parsylation) was detected using [^3H]-NAD^+ as substrate and applying the scintillation proximity assay (SPA) method to detect tritium-labeled, parsylated TNKS2. The intensity of the readout signal is proportional to the incorporated [^3H]-NAD^+. Inhibition of TNKS2 leads to a decreased incorporation of [^3H]-NAD^+ and consequently to a lower readout signal intensity. The concentration of a test compound which inhibits the enzyme activity by 50% (corresponds to half of the normed readout signal intensity) is reported as IC50.
The assay was conducted in a 96 well MTP format with the identical TNKS2 enzyme sample and NAD^+ sample as in the histone ribosylation assay with the following modifications: TNKS2 enzyme sample was diluted with a modified assay buffer (50 mM MES pH 7.0, 1 mM DTT, 0.01% Triton X-100) to a final concentration of 6 nM TNKS2 and 10×NAD^+ solution was diluted with the modified assay buffer (s. above) to a final 0.445×NAD^+ solution doped with 100 Bq/ul [^3H]-NAD^+ [Catalog #NET443H050UC, Perkin Elmer, Waltham, Mass., USA]. Substrate solution (10 ul) was incubated with different test compound concentrations (2.5 ul in 10% DMSO in modified assay buffer) or control (2.5 ul 10% DMSO in modified assay buffer only) and enzyme (10 ul) over night at room temperature. Incorporated tritium was measured after addition of 50 ul SPA beads (1 mg/ml) [Catalog #RPNQ0095 20 mg/ml, Perkin Elmer, Waltham, Mass., USA; diluted 1:10 with Dulbecco's phosphate buffered saline, PBS Catalog #D8537, Sigma-Aldrich, Steinheim, Germany] and detection of the photon emission with a beta count plate reader [Wallac MicroBeta®, Perkin Elmer, Waltham, Mass., USA].

[1] = tested on: HEK293 FOP control reporter cell line; test: HEK293 FOP Assay (FOP control vector luciferase reporter); format: cell-based; settings: Homo sapiens
Method: In a parallel approach, HEK293 cells were cotransfected with the FOP control vector and pcDNA3. The FOP vector is identical to the TOP construct, but it contains instead of functional TCF elements a randomized, non-functional sequence. For this transfection a stable transfected cell line was generated as well, based on selection with Geneticin (1 mg/ml).
In preparation of the assay, the two cell lines were plated 24 hrs before beginning the test at 10000 cells per well in a 384 micro titre plate (MTP) in 30 μl growth medium. […] The recombinant human Wnt-3a was thereby applied between 2500 and 5 ng/ml in two-fold dilution steps.
Selective inhibitory activity for small molecules on the wildtype Wnt pathway was determined after parallel incubation of both (TOP and FOP) HEK293 reporter cell lines with a compound dilution series from 50 μM to 15 nM in steps of 3.16-fold dilutions in CAFTY buffer (130 mM sodium chloride, 5 mM potassium chloride, 20 mM HEPES, 1 mM magnesium chloride, 5 mM sodium bicarbonate, pH 7.4) containing 2 mM Ca^2+ and 0.01% BSA.
The compounds were thereby serially prediluted in 100% DMSO and thereafter 50 fold into the CAFTY compound dilution buffer (described above).

[2] = tested on: wildtype Wnt signaling cascade; test: HEK293 TOP Assay (Super TopFlash luciferase reporter, Wnt-3a stimulated); format: cell-based; settings: Homo sapiens, HEK293, 16 h
Procedure, shortened: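 Compounds (50 μM down to 15 nM, 3.16-fold steps, in CAFTY buffer pH 7.4, 2 mM Ca2+, 0.01% BSA) tested in parallel on TOP and FOP HEK293 reporter lines to define selective wildtype Wnt inhibition. Pathway driven by recombinant human Wnt-3a applied at 2500–5 ng/ml in two-fold dilutions.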

[3] = HEK293 TOP reporter cell line, Wnt-3a at EC50, 16 hours incubation, compound dilution series 50 μM to 15 nM
[4] = HEK293 FOP control reporter cell line, 16 hours incubation, compound dilution series 50 μM to 15 nM

Structure (SMILES) | IC50 (TNKS2) [µM] | IC50 [2, 3] [µM] | IC50 ([2]; HEK293 TOP reporter cells, Wnt3a at EC50, 16 hours, luciferase) [µM] | IC50 ([1]; HEK293 FOP control reporter cells, 16 hours, luciferase, dilution series from 50 μM) [µM] | IC50 [1, 4] [µM]
CNC(=O)c1nc[nH]c1C(=O)Nc1ccc(NC(=O)c2cccnc2Cl)cc1 [Example 2, N^5-(4-{[(2-chloropyridin-3-yl)carbonyl]amino}phenyl)-N^4-methyl-1H-imidazole-4,5-dicarboxamide] | > 10 | 7.05 | 6.1 | ≥ 50 | –
CNC(=O)c1nc[nH]c1C(=O)Nc1ccc(NC(=O)c2ccccc2S(C)(=O)=O)cc1 [Example 249, N^4-methyl-N^5-(4-{[2-(methylsulfonyl)benzoyl]amino}phenyl)-1H-imidazole-4,5-dicarboxamide] | 5.7 | 2.4 | – | – | –
CCNC(=O)c1nc[nH]c1C(=O)Nc1ccc(NC(=O)c2ccc(OC(F)(F)F)cc2F)cc1 [Example 262, N^4-ethyl-N^5-(4-{[2-fluoro-4-(trifluoromethoxy)benzoyl]amino}phenyl)-1H-imidazole-4,5-dicarboxamide] | > 10 | 8.7 | – | – | –
CNC(=O)c1nc[nH]c1C(=O)Nc1ccc(NC(=O)c2cccc(C(F)(F)F)c2)cc1 [Example 314, N^4-methyl-N^5-(4-{[3-(trifluoromethyl)benzoyl]amino}phenyl)-1H-imidazole-4,5-dicarboxamide] | – | 6.9 | – | – | 24
CNC(=O)c1nc[nH]c1C(=O)Nc1ccc(NC(=O)c2ccc(N(C)C)cc2)cc1 [Example 315, N^5-(4-{[4-(dimethylamino)benzoyl]amino}phenyl)-N^4-methyl-1H-imidazole-4,5-dicarboxamide] | – | 14 | – | – | 41
CNC(=O)c1nc[nH]c1C(=O)Nc1ccc(NC(=O)c2cccc(F)c2F)cc1 [Example 319, N^5-{4-[(2,3-difluorobenzoyl)amino]phenyl}-N^4-methyl-1H-imidazole-4,5-dicarboxamide] | – | 8.9 | – | – | 37
CNC(=O)c1nc[nH]c1C(=O)Nc1ccc(NC(=O)c2cccc(Cl)c2)cc1 [Example 325, N^5-{4-[(3-chlorobenzoyl)amino]phenyl}-N^4-methyl-1H-imidazole-4,5-dicarboxamide] | – | 4.9 | – | – | 10
CNC(=O)c1nc[nH]c1C(=O)Nc1ccc(NC(=O)c2ccccc2F)cc1 [Example 326, N^5-{4-[(2-fluorobenzoyl)amino]phenyl}-N^4-methyl-1H-imidazole-4,5-dicarboxamide] | > 10 | 3 | – | – | –
CNC(=O)c1nc[nH]c1C(=O)Nc1ccc(NC(=O)c2cc(Cl)cc(Cl)c2)cc1 [Example 327, N^5-{4-[(3,5-dichlorobenzoyl)amino]phenyl}-N^4-methyl-1H-imidazole-4,5-dicarboxamide] | – | 39.5 | – | – | 37

Continued, in another order:

IC50 (TNKS2) [µM] | IC50 [2, 3] [µM] | IC50 ([2]; HEK293 TOP reporter cells, Wnt3a at EC50, 16 hours, luciferase) [µM] | Structure (SMILES) | IC50 ([1]; HEK293 FOP control reporter cells, 16 hours, luciferase, dilution series from 50 μM) [µM] | IC50 [1, 4] [µM]
> 10 | 4.5 | – | CCNC(=O)c1nc[nH]c1C(=O)Nc1ccc(NC(=O)c2ccc(OC(F)F)cc2F)cc1 [Example 258, N^5-(4-{[4-(difluoromethoxy)-2-fluorobenzoyl]amino}phenyl)-N^4-ethyl-1H-imidazole-4,5-dicarboxamide] | – | –
– | 1.08 | – | CNC(=O)c1nc[nH]c1C(=O)Nc1ccc(NC(=O)c2cc(C)ccc2C)cc1 [Example 307, N^5-{4-[(2,5-dimethylbenzoyl)amino]phenyl}-N^4-methyl-1H-imidazole-4,5-dicarboxamide] | – | 18
– | 2.65 | – | CNC(=O)c1nc[nH]c1C(=O)Nc1ccc(NC(=O)c2cccc(Cl)c2C)cc1 [Example 341, N^5-{4-[(3-chloro-2-methylbenzoyl)amino]phenyl}-N^4-methyl-1H-imidazole-4,5-dicarboxamide] | – | 45
– | 0.47 | – | CCN(CC)CCCC(C)NC(=O)c1nc[nH]c1C(=O)Nc1ccc(NC(=O)c2ccc(F)cc2Cl)cc1 (stereo not shown) [Example 380, N^5-{4-[(2-chloro-4-fluorobenzoyl)amino]phenyl}-N^4-[5-(diethylamino)pentan-2-yl]-1H-imidazole-4,5-dicarboxamide] | – | 24
